Experiments:
endogenous RT activity = experiment: PCR-based functional RT activity assay (MS2 RNA) with F9 lysate; format: biochemical, murine; settings: cell lysate pre-incubated with 100 μM
Excerpt: FIG. 1: Reverse transcriptase in murine and human cell lines. FIG. 1A. […] Lanes M, DNA molecular weight markers; lane 23, positive control reaction with commercial Rt. FIG. 1B. Western analysis of RT proteins (upper panels) and α-tubulin (lower panels) in WCE and nuclei. WCE were from: F9 (lane 1), NIH/3T3 (lane 2), MCF7 (lane 3), MDA-231 (lane 4), NB4 (lane 5), HL60 (lane 6) and ML2 blasts (lane 7). Nuclear extracts were from: F9 (lane 1), MCF7 (lane 2), MDA-231 (lane 3), NIH 3T3 (lane 4), HL60 (lane 5) and NB4 (lane 6).
The RT enzymatic activity, which is the target of the inhibitors described herein, has been detected in all cell lines, of both murine and human origin, that have been tested in this work using a PCR-based assay. […] The presence of RT enzyme in tumor cells is further confirmed by Western blot analysis.

[1] = tested on: Saos-2 osteosarcoma cells; experiment: Cell proliferation by cell counting; format: cell-based, human; settings: 350 μM nevirapine vs control cultures
Description: Samples were withdrawn at specific times and cells were counted in nevirapine-exposed and control (DMSO-exposed) cultures. […] Saos-2 osteosarcoma cells were the most slowly responsive type, and only after 5 days of exposure did the growth rate begin to decrease compared to control cultures.
The effect of efavirenz was further tested in human HeLa adenocarcinoma and Saos-2 osteosarcoma cells. Both cell lines were cultured in the conditions described above (Example 6). To establish if prolonged exposure to the drug improved the effectiveness of growth inhibition, both cell lines were exposed to efavirenz in two subsequent cycles: during the 1st cycle cells were continuously exposed to 20 μM efavirenz for 5 days; cells were then diluted, reseeded again and the 2nd cycle exposure was initiated the following day with fresh drug. […] The inhibitory effect was time-dependent, since in both HeLa and Saos-2 cultures, the 1st cycle of exposure (5 days) yielded a 1.6- and 1.5-fold reduction, respectively, whereas a 5- and 4-fold reduction was obtained in the 2nd cycle (carried out until day 20 from the onset of exposure).

NIH/3T3 = experiment: FACS cell cycle analysis; format: cell-based, murine; settings: after 72 h of nevirapine treatment
Excerpt: (§1) FIG. 3A. Cell cycle analysis in control and nevirapine-exposed cells. […] In the U343 glioma cell line, the cell cycle was separately analysed in the diploid cell fraction (representing about ⅔ of all cells) and in the remaining fraction (about ⅓) which develops aneuploidy. FIG. 3B. […] The filter was reprobed with anti-actin antibody to control equal loading (lower panel).

cyclin D1 in HT-29 = experiment: Western immunoblotting of cyclin D1; format: cell-based, human; settings: 72 h nevirapine vs non-exposed controls
Excerpt: as §1

cyclin D1 in MCF-7 = experiment: Western immunoblotting of cyclin D1; format: cell-based, human; settings: 72 h nevirapine vs non-exposed controls
Excerpt: as §1

[2] = tested on: cyclin D1 in U343 Mg glioma; experiment: Western immunoblotting of cyclin D1; format: cell-based, human; settings: 72 h nevirapine vs non-exposed controls, data not shown
Excerpt: as §1

NB4 cells [3] = experiment: Morphological differentiation, Wright-Giemsa staining; format: cell-based, human; settings: five days of nevirapine treatment (400 μM)
HL60 cells [4] = experiment: as above; format: cell-based, human; settings: five days of nevirapine treatment (400 μM)
primary AML blasts = experiment: Differentiation of AML cells poorly sensitive to RA; format: cell-based, human; settings: nevirapine treatment
HL60 cells [5] = experiment: Cytofluorimetric analysis of cell surface markers; format: cell-based, human; settings: HL60, NEV 450 μM, 4 days
Excerpt: (§2) The induction of CD11b is associated with granulocytic differentiation, CD14 is considered a monocytic specific antigen and CD15 is a myelomonocytic antigen. Simultaneous induction of CD14 and CD11b relates to monocytic differentiation. […] In nevirapine-treated NB4 and HL60 cells, a strong induction of expression of CD15, and, to a lesser degree, CD11b and CD14 markers was detected.

NB4 cells [6] = experiment: Cytofluorimetric analysis of cell surface markers; format: cell-based, human; settings: NB4, NEV 450 μM, 4 days
Excerpt: as §2

AML#1 = experiment: Cytofluorimetric analysis of cell surface markers; format: cell-based, human; settings: AML#1, NEV 450 μM, 4 days
NB4 cells [7] = experiment: Growth, viable cell count; format: cell-based, human; settings: NB4, Nev 350 μM, 4 days
AML #1 [8] = experiment: Growth, viable cell count; format: cell-based, human; settings: AML #1, Nev 350 μM, 4 days
AML #2 [9] = experiment: Growth, viable cell count; format: cell-based, human; settings: AML #2, Nev 350 μM, 4 days
HL60 cells [10] = experiment: NBT dye reduction assay; format: cell-based, human; settings: HL60, Nev 350 μM, 4 days
AML #1 [11] = experiment: NBT dye reduction assay; format: cell-based, human; settings: AML #1, Nev 350 μM, 4 days
AML #2 [12] = experiment: NBT dye reduction assay; format: cell-based, human; settings: AML #2, Nev 350 μM, 4 days
Morris 3924A hepatoma = experiment: Morris 3924A rat hepatoma in vivo
Description: Rat strain: ACI/T inbred (about 180 gr)
Tumor: Morris 3924A hepatoma is a fast-growing tumor which develops in inbred ACI/T animals. Three weeks after inoculation the tumor size is about 10 cm^3.
Preparation of tumor cells: hepatoma tumor cells are prepared from the animal about two weeks after inoculation. The tumor is surgically removed from the animal, separated from connective and necrotic tissues and minced in small pieces. Tumor fragments are then suspended in sterile physiological solution and inoculated in the internal site of one thigh using a 20 ml-syringe with a large size needle. Routinely 0.5 ml of cell suspension are injected. The success rate of tumor implantation is nearly 99%.
On the eleventh day, hepatoma cells were inoculated subcutaneously in pre-treated and in three non-treated control rats.
Procedures and Results: Morris hepatoma cells were inoculated in 4 rats ([…]). The same day, treatment with efavirenz was initiated in two of them by injecting 1 mg/rat/day.

[13] = tested on: Kasumi-1 cell line and primary blasts from two AML patients; experiment: Cell cycle in myeloid leukemia cells poorly sensitive to RA; format: cell-based, human; settings: nevirapine treatment, data not shown

For Cc1ccnc2c1NC(=O)c1cccnc1N2C1CC1 [nevirapine, 5,11-dihydro-11-cyclopropyl-4-methyl-6H-dipyrido-[3,2-b:2′,3′-e][1,4]diazepin-6-one], which “RT activity, 112 bp-product” value (endogenous RT activity) is on record?
The value was “abolished”.

And the “exposure after which the growth rate begins to decrease” value [1]?
Its value is 5 days.

And the “cells with a G0/G1 DNA content” value (NIH/3T3)?
Its value is “accumulated”.

And the “cyclin D1 levels” value (cyclin D1 in HT-29)?
The value was “substantial decrease”.

What about the “cyclin D1 levels” value (cyclin D1 in MCF-7) of the same compound?
The value was “substantial decrease”.

What about the “cyclin D1 levels” value [2] of the same compound?
Its value is “substantial decrease”.

And the morphology (NB4 cells [3])?
The morphology was “myelomonocytic-like morphology was evident”.

And the morphology (HL60 cells [4])?
The morphology was “myelomonocytic-like morphology was evident”.

What about the “differentiation (morphological, functional, immunophenotypic)” value (primary AML blasts) of the same compound?
Its value is “triggering differentiation”.

And the “CD11b mean fluorescence intensity” value (HL60 cells [5])?
The value was 16.6 AU.

And the “CD14 mean fluorescence intensity” value (HL60 cells [5])?
The value was 45.3 AU.

What about the “CD15 mean fluorescence intensity” value (HL60 cells [5]) of the same compound?
The value was 1298.1 AU.

What about the “CD11b mean fluorescence intensity” value (NB4 cells [6]) of the same compound?
The value was 10.1 AU.

And the “CD14 mean fluorescence intensity” value (NB4 cells [6])?
Its value is 23.1 AU.

What about the “CD15 mean fluorescence intensity” value (NB4 cells [6]) of the same compound?
Its value is 196.3 AU.

What about the “CD11b mean fluorescence intensity” value (AML#1) of the same compound?
The value was 5.9 AU.

What about the “CD14 mean fluorescence intensity” value (AML#1) of the same compound?
Its value is 8.8 AU.

What about the “CD15 mean fluorescence intensity” value (AML#1) of the same compound?
The value was 15.6 AU.

And the “Viable cells N^0 × 10^5” value (NB4 cells [7])?
The value was 2.6 ± 0.4 × 10^5.

And the “Viable cells N^0 × 10^5” value (AML #1 [8])?
The value was 0.6 ± 0.1 × 10^5.

And the “Viable cells N^0 × 10^5” value (AML #2 [9])?
The value was 1.2 ± 0.1 × 10^5.

And the “NBT+ (%)” value (HL60 cells [10])?
Its value is 37.8 ± 2.5%.

And the “NBT+ (%)” value (AML #1 [11])?
The value was 19.5 ± 0.7%.

What about the “NBT (%)” value (AML #2 [12]) of the same compound?
The value was 68.1 ± 1.4%.

What about the “tumor at the site of injection” value (Morris 3924A hepatoma; nevirapine 18 mg/rat/day pre-treatment for 11 days, 17 days from inoculation, only one of 3 treated rats, controls 2-4 cm^3) of the same compound?
The value was “small nodule of a few millimeters”.

What about the “rats in which onset and growth of hepatoma were antagonized (remained permanently healthy)” value (Morris 3924A hepatoma; nevirapine 18 mg/rat/day pre-treatment for 11 days, untreated 3/3 develop tumor) of the same compound?
Its value is “⅔”.

And the “histology of tumor tissue” value (Morris 3924A hepatoma; nevirapine-treated rat vs untreated sample)?
The value was “transformed areas are remarkably reduced, and cells present clear apoptotic features”.

What about the “accumulation of cells in the G1 phase of the cell cycle” value [13] of the same compound?
The value was “modest yet constant accumulation”.
